In assay [1] the target is T1, wheat germ agglutinin (WGA).
T1 construct: gene WGA1
Nature of the assay: imaging STD NMR, initial slopes (STD-AF0), Langmuir fit. It is filed as binding, Triticum aestivum.

For assay [2], the target named is T2, bovine serum albumin (BSA) (Bos taurus, UniProt P02769).
T2 construct: gene ALB
The description is as above. In kind it is binding.

Structures are written as SMILES.

By Kd is commonly meant the concentration at which binding is half-saturated.

T2 sequence (P02769 25-607): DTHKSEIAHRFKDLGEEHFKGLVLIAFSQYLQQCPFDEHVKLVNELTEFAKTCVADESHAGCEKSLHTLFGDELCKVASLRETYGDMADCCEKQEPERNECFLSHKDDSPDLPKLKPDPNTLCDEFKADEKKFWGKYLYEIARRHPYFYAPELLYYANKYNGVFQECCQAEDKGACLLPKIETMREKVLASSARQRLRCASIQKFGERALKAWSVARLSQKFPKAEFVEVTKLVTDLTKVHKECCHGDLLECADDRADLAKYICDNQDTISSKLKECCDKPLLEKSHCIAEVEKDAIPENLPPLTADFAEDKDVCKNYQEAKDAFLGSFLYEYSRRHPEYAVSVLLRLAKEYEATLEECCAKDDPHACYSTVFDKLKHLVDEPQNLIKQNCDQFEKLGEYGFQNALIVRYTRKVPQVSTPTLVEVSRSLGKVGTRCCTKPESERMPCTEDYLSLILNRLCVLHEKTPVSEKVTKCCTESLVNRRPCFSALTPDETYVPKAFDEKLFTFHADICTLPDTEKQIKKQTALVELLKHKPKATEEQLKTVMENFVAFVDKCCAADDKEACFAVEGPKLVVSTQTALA

`CC(=O)N[C@H]1C(O)O[C@H](CO)[C@@H](O)[C@@H]1O` (some centres unmarked) [GlcNAc]: in assay [1], binding was put at a Kd of 2240 ± 180 µM. Turning to `N[C@@H](Cc1c[nH]c2ccccc12)C(=O)O` [tryptophan], the Kd in assay [2] came out at 231 ± 50 µM.
